Measured values reported in ChEMBL document CHEMBL1201862, “PubChem BioAssay data set” (2004).
Each block holds one compound with its values, some of them ahead of it. Activity calls are given as the source filed them.

Tests used:
[1] = molecular target: G-protein coupled receptor 55 (Homo sapiens, UniProt Q9Y2T6); assay: GPR55 antagonists blocking LPI-driven arrestin recruitment, primary screen, imaging, U2OS, beta-arrestin-GFP, LPI agonist (AID 2013); format: functional;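 further: antagonist potency measured as reduced agonist-driven arrestin aggregation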
[2] = molecular target: T1, Mannose-6-phosphate isomerase (Homo sapiens, UniProt P34949); assay: PMI enzyme inhibitors, confirmation, biochemical, fluorescence intensity (AID 1535)
T1 sequence (P34949 whole entry): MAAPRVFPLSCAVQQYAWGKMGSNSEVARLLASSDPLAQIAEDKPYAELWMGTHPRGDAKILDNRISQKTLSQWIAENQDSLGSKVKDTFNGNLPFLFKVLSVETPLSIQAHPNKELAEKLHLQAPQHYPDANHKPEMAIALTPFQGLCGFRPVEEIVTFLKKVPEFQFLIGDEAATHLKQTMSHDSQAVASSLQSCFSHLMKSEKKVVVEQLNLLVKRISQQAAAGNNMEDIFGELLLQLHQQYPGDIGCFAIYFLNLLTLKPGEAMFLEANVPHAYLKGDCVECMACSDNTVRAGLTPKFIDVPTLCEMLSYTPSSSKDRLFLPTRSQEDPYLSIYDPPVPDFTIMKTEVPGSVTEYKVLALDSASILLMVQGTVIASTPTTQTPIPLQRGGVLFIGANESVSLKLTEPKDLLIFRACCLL

Phosphomannomutase 2 = Phosphomannomutase 2 (Homo sapiens, UniProt O15305); assay: Counter screen SAR assay for PMM2 inhibitors via a fluorescence intensity assay. [Related pubchem assays (depositor defined):AID1545, AID1574]
Vero [3] = assay: cytotoxicity of synthesized analogs in Vero cells, SAR follow-up, cytotoxicity control for West Nile virus antiviral project, cell-based, set II (AID 2402); format: functional; conditions: Chlorocebus sabaeus
Vero [4] = assay: Vero E6 cell cytotoxicity, SAR follow-up, cytotoxicity control for West Nile virus antiviral project, synthesized analogs (AID 2244); format: functional; conditions: Chlorocebus sabaeus
[5] = molecular target: T2, Voltage-dependent T-type calcium channel subunit alpha-1H (Homo sapiens, UniProt O95180); assay: Inhibitors of T-Type Calcium Channels. [Related pubchem assays (depositor defined):AID449739, AID463087, AID489005, AID493041, AID504579, AID504584, AID504619, AID504628]; format: functional
T2 sequence (O95180 whole entry): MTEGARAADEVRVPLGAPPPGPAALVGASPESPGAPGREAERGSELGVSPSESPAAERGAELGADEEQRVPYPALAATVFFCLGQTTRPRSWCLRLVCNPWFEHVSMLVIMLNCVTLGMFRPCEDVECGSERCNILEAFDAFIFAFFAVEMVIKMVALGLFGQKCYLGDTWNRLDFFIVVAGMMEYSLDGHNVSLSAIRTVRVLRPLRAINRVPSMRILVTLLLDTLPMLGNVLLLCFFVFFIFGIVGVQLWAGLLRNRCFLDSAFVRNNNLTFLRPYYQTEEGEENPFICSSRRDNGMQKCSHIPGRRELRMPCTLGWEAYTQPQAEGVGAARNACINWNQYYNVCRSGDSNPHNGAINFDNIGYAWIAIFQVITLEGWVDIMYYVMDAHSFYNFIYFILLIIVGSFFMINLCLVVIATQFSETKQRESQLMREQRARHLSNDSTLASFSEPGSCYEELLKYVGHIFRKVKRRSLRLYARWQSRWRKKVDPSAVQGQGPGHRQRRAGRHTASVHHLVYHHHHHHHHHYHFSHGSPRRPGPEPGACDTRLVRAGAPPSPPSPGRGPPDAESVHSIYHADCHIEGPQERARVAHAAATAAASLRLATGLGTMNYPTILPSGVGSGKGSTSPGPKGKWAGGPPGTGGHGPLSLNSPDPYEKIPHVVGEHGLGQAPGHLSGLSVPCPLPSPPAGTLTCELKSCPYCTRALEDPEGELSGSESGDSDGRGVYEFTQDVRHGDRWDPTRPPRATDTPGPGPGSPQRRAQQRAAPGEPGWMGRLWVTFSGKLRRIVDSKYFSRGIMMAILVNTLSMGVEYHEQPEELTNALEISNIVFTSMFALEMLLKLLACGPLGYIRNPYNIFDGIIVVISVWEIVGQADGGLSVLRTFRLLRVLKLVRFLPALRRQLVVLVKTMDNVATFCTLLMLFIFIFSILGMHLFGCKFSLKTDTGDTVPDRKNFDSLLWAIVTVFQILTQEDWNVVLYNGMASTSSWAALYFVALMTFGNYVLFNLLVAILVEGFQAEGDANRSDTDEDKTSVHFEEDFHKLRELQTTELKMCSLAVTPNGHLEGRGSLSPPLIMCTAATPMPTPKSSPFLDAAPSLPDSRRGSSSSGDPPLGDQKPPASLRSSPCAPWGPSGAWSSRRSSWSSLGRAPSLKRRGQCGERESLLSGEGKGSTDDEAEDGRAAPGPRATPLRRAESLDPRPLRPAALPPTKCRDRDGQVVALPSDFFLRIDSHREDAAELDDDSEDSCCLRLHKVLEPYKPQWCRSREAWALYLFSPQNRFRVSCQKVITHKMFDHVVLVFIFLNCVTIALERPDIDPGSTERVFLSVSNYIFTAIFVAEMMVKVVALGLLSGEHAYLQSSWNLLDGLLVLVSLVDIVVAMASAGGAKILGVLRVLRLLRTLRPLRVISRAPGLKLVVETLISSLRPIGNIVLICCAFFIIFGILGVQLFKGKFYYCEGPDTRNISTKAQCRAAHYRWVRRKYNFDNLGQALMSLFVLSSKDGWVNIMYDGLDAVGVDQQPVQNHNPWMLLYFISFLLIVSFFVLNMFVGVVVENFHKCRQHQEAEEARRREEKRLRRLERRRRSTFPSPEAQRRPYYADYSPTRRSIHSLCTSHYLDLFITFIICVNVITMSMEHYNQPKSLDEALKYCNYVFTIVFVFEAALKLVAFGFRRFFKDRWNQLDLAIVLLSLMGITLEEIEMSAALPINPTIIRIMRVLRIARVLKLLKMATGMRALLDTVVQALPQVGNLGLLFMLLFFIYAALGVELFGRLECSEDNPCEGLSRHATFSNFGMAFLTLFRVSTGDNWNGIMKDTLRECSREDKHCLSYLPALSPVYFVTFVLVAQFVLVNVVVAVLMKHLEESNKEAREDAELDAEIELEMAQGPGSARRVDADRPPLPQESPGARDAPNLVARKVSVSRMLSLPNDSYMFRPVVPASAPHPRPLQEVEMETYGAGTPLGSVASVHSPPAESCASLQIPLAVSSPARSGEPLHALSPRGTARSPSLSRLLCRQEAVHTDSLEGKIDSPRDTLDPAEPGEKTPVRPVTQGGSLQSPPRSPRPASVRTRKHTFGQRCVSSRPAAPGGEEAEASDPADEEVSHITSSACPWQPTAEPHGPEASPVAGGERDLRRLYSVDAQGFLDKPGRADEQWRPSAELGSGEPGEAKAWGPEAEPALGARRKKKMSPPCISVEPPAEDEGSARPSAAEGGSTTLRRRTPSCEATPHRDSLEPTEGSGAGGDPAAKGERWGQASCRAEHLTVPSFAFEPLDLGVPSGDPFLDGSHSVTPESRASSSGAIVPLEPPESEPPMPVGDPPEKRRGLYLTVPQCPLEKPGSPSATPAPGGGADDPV

[6] = molecular target: T2, Voltage-dependent T-type calcium channel subunit alpha-1H; format: functional
[7] = molecular target: T3, Heat shock factor protein 1 (Mus musculus, UniProt P38532); assay: inhibition of MG132-induced HSE-luciferase signal, confirmation, cell-based, NIH3T3, luminescence, dose retest (AID 2382); format: functional;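 further: NIH3T3 fibroblasts with HSF1-driven luciferase reporter stressed by proteasome inhibitor MG132; luminescence from HSF1-driven luciferase expression after 8 hours of MG132 stress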
T3 sequence (P38532 whole entry): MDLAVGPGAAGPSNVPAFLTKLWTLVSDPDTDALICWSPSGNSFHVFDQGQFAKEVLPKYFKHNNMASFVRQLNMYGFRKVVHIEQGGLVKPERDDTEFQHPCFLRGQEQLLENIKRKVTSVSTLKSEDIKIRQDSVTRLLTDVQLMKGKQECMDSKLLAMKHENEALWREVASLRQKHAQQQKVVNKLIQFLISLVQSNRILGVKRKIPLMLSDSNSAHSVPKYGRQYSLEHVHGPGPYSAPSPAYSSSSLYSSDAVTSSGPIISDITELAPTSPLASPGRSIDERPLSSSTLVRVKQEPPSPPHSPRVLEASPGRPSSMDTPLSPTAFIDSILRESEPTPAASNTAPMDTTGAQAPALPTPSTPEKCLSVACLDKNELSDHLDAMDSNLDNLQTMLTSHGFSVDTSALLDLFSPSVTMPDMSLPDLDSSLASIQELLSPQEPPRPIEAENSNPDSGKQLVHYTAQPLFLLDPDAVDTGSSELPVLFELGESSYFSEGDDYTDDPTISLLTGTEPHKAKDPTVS

[8] = molecular target: T4, Calpain-2 catalytic subunit (Sus scrofa, UniProt P43367); assay: pig calpain II inhibitor potency, dose response, biochemical, fluorogenic peptide substrate (AID 1420); format: functional
T4 sequence (P43367 whole entry): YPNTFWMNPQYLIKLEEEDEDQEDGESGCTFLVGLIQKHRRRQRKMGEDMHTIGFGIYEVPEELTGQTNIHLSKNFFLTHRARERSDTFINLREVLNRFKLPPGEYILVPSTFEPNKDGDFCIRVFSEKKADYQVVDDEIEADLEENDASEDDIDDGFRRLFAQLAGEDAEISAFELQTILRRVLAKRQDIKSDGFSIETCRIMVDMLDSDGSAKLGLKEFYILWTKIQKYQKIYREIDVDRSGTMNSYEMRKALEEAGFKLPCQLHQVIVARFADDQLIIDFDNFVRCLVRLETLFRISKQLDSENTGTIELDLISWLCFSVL

[9] = molecular target: Lysosomal acid glucosylceramidase (Homo sapiens, UniProt P04062); assay: Dose response cell-based high throughput screening assay to identify enhancers of beta-glucosidase activity. [Related pubchem assays: 784 ]; format: functional
Chain of Lysosomal acid glucosylceramidase (P04062 whole entry): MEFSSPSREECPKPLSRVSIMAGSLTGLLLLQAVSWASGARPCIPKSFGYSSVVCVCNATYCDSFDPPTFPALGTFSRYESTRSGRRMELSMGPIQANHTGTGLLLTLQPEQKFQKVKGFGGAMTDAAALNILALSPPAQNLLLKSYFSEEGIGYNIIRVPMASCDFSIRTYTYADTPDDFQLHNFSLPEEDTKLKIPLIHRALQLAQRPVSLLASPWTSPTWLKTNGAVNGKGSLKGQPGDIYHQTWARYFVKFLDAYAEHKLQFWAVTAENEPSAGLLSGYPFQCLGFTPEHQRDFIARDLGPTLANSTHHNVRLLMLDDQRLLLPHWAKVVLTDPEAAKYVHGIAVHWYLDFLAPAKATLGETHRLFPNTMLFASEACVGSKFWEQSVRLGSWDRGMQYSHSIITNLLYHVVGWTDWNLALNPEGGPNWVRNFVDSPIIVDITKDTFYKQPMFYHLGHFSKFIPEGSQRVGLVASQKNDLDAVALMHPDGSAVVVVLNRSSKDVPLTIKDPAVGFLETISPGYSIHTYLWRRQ

Cytochrome P450 2C19 = Cytochrome P450 2C19 (Homo sapiens, UniProt P33261); assay: Cytochrome panel assay with activity outcomes. Panel member name: p450-cyp2c19 Compounds with AC50 equal or less than 10 uM are considered active; format: functional; conditions: read-out: AC50
Cytochrome P450 2C9 = Cytochrome P450 2C9 (Homo sapiens, UniProt P11712)
Procathepsin L = Procathepsin L (Homo sapiens, UniProt P07711)
Aspartyl aminopeptidase = Aspartyl aminopeptidase (Plasmodium falciparum 3D7, UniProt Q8I2J3)
Chain of Aspartyl aminopeptidase (Q8I2J3 whole entry): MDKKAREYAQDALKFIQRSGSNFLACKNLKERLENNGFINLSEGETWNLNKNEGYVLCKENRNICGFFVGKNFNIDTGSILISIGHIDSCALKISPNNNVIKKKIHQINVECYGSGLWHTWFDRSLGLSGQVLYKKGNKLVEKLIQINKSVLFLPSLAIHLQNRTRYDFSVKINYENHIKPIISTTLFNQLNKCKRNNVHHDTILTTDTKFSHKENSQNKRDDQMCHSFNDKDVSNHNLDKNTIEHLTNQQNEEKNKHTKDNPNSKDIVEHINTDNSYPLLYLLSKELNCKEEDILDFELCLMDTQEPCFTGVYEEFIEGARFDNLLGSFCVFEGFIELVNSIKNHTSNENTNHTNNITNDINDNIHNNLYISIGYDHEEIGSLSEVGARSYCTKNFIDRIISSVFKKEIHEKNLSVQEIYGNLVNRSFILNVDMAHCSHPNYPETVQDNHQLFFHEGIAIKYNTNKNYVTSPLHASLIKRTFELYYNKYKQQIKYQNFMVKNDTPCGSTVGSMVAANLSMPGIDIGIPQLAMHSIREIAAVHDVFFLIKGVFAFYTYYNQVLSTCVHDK

[10] = molecular target: T5, Kappa-type opioid receptor (Homo sapiens, UniProt P41145); format: functional
T5 sequence (P41145 whole entry): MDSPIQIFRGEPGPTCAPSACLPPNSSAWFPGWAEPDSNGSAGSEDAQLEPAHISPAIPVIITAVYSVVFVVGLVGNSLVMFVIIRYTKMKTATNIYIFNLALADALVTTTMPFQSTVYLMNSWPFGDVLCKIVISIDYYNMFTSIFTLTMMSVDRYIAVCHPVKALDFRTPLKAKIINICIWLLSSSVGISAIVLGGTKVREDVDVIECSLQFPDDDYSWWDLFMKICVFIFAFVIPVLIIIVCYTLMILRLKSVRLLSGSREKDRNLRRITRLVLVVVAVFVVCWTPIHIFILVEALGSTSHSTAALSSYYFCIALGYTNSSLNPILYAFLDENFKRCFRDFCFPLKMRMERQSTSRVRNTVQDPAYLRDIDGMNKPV

[11] = molecular target: T5, Kappa-type opioid receptor; format: functional; remark: listed apart in the source
Beta-galactosidase = Beta-galactosidase (Escherichia coli, UniProt Q8VNN2); format: functional
Chain of Beta-galactosidase (Q8VNN2 whole entry): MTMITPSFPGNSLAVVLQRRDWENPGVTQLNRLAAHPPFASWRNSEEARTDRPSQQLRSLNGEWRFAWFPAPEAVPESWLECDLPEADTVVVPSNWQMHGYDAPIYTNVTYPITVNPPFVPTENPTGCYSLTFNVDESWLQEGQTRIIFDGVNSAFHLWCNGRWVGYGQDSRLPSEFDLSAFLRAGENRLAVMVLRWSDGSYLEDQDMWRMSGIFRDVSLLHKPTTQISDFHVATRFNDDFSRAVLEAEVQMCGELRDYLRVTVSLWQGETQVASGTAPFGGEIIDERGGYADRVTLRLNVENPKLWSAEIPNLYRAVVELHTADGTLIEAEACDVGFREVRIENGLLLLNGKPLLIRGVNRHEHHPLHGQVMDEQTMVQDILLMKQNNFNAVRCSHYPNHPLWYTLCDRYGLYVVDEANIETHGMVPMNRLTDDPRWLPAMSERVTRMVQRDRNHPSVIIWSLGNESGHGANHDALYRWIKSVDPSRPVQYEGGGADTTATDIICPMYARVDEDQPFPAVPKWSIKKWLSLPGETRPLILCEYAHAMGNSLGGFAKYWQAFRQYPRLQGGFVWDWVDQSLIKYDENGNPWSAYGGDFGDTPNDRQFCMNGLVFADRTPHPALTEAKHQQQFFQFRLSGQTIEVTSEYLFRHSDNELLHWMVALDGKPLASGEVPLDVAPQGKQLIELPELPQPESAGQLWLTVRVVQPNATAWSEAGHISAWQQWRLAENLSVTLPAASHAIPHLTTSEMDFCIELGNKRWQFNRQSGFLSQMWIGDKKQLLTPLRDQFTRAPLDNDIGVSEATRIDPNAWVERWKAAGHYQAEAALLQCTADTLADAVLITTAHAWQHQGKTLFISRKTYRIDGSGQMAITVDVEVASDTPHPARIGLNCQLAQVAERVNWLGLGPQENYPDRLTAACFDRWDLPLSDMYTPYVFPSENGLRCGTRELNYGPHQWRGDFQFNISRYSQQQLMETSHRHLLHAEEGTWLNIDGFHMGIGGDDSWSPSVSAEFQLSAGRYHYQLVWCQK

[12] = molecular target: Intestinal-type alkaline phosphatase (Homo sapiens, UniProt P09923); assay: Dose Response confirmation of uHTS hits from a small molecule inhibitors of human intestinal alkaline phosphatase via a luminescent assay. [Related pubchem assays (depositor defined):AID2544, AID2574]; format: functional

SMILES: COCCNP(=O)(c1ccccc1)c1nc2ccccc2s1 (configuration not stated)
IC50 [2]: > 50 µM (inactive)
IC50 (Phosphomannomutase 2): > 100 µM (inactive)

SMILES: COc1ccc(-c2csc(N(Cc3ccccc3)C(=O)c3ccccc3Cl)n2)cc1
CC50 (Vero [3]): > 100 µM (active)
CC50 (Vero [4]): > 40 µM (active)

SMILES: O=C(CCCCCCN1C(=O)c2ccccc2C1=O)N1CCC(c2ccccc2)C1 (configuration not stated)
EC50 [5]: 1.81 µM (active)
EC50 [6]: 0.624 µM (active)
EC50 [7]: > 195 µM (not active)
IC50 [8]: 7.71 µM (active)

SMILES: COC(=O)CN1C(=O)C2(OCCCO2)c2cc(Br)ccc21
EC50 [9]: > 10 µM (not active)

SMILES: Cc1ccc(Cl)cc1N1CCN(C(=O)C2(S(=O)(=O)c3ccc(Cl)cc3)CC2)CC1
EC50 [5]: 5.26 µM (active)
EC50 [6]: 0.928 µM (active)

More lines, now with the values ahead:

IC50 [1]: 5.49 µM (active)
SMILES: O=C1/C(=C/c2ccncc2)SC(=S)N1C1CCS(=O)(=O)C1 (configuration not stated)

AC50 (Cytochrome P450 2C19): 25.1 µM (inconclusive)
EC50 [9]: > 50 µM (not active)
AC50 (Cytochrome P450 2C9): 12.6 µM (inconclusive)
SMILES: COc1ccc2c(c1)-c1ccccc1S(=O)(=O)N2C(C)=O

IC50 (Procathepsin L): > 59.6 µM (not active)
IC50 (Aspartyl aminopeptidase): 1.87 µM (active)
SMILES: Cc1c(Cl)cccc1NC(=O)Nn1cnnc1

IC50 [10]: 14.7 µM (active)
IC50 [11]: > 32 µM
EC50 (Beta-galactosidase): > 31.5 µM (inactive)
EC50 [7]: > 195 µM (not active)
SMILES: O=C(N/N=C/c1ccccn1)c1ccc([N+](=O)[O-])cc1

IC50 [12]: > 100 µM (inactive)
SMILES: CC(/C=N/NC(=O)CCn1nnc2ccccc21)=C\c1ccccc1
